Measured values from patent EP4491627A1, “SYNTHETIC CA[…] ON CHROMENO[…] AND USE THEREOF” (Consejo Superior De Investigaciones Científicas, priority 2023, dated 2025).

Tested on: primary neuronal cultures
Experiment: cAMP assay in primary neuronal cultures
Format: cell-based, Sprague Dawley rats
Conditions: primary cultures of cortical neurons; Figure 5
Method: • Fig. 1. Graphics of the dose-response corresponding to the HTFR (Homogeneous Time Resolved Fluorescence) assays performed with chromenopyrimidines Example 1, Example 2 and Example 3. A) Competition assay snap-CB1; red ligand used at 100 nM; B) Competition assay snap-CB2; red ligand used at 20 nM. • Fig. 2. cAMP (Cyclic adenosine monophosphate) experiments performed with novel chromenopyrimidines (Example 1, Example 2 and Example 3). A) In HEK293 cells transfected with CB1; B) In HEK293 cells transfected with CB2. • Fig. 3. Graphics of the dose-response corresponding to the MAPK (mitogen-activated protein kinase) experiments performed with novel chromenopyrimidines (Example 1, Example 2 and Example 3). A) In HEK293 cells transfected with CB1; B) In HEK293 cells transfected with CB2. • Fig. 4. Graphics of the dose-response corresponding to the β-arrestin2 recruitment assays performed with Example 1, Example 2 and Example 3. A) In HEK293 cells transfected with CB1; B) In HEK293 cells transfected with CB2. • Fig. 5. Graphics of the dose-response corresponding to the cAMP assays performed with Example 1, Example 2 and Example 3 in neurons. • Fig. 6. Graphics of the dose-response of reference cannabinoids ACEA and anandamide in cAMP and MAPK assays in HEK293-CB1 cells. • Fig. 7. […]
In the present invention, cannabinoid affinity was evaluated using Homogeneous Time Resolved Fluorescence (HTFR) binding assays. Cannabinoid activity was assessed using an array of functional assays including cAMP, MAPK and barrestin2 recruitment in CB1 and CB2 transfected HEK293 cells. […]
Two hours before initiating the experiment, HEK-293T cells medium was replaced by serum-starved DMEM medium. […] Readings were performed after 60 min incubation at 25°. Homogeneous time-resolved fluorescence energy transfer (HTRF) measures were performed using the Lance Ultra cAMP kit (PerkinElmer, Waltham, MA, USA). Fluorescence at 665 nm was analysed on a PHERAstar Flagship microplate reader equipped with an HTRF optical module (BMG Lab technologies, Offenburg, Germany). […]

| Structure (SMILES) | cannabinoid agonistic activity in primary neuronal cultures using cAMP assays |
| --- | --- |
| CCCCCCC(C)(C)c1cc(O)c2c(c1)OC(C)(C)c1cncnc1-2 [Example 1, 8-(1,1-Dimethylheptyl)-5,5-dimethylchromeno[4,3-d]pyrimidin-10-ol] | cannabinoid agonistic activity |
| CCCCCCC(C)(C)c1cc(OC)c2c(c1)OC(C)(C)c1cncnc1-2 [Example 2, 8-(1,1-Dimethylheptyl)-10-methoxy-5,5-dimethylchromeno[4,3-d]pyrimidine] | cannabinoid agonistic activity |
| CCCCCCC(C)(C)c1cc(OCc2ccccc2)c2c(c1)OC(C)(C)c1cncnc1-2 [Example 3, 10-Benzyloxy-8-(1,1-dimethylheptyl)-5,5-dimethylchromeno[4,3-d]pyrimidine] | cannabinoid agonistic activity |
